Our source for the IC50 and Inhibition values is ChEMBL document CHEMBL1133935, “A novel phosphotyrosine mimetic 4'-carboxymethyloxy-3'-phosphonophenylalanine (Cpp): exploitation in the design of nonpeptide inhibitors of pp60(Src) SH2 domain” (Bioorg Med Chem Lett, 2001).

Assay [1] concerns the target T1, Tyrosine-protein kinase ZAP-70 (Homo sapiens, UniProt P43403).
T1 sequence (P43403 whole entry): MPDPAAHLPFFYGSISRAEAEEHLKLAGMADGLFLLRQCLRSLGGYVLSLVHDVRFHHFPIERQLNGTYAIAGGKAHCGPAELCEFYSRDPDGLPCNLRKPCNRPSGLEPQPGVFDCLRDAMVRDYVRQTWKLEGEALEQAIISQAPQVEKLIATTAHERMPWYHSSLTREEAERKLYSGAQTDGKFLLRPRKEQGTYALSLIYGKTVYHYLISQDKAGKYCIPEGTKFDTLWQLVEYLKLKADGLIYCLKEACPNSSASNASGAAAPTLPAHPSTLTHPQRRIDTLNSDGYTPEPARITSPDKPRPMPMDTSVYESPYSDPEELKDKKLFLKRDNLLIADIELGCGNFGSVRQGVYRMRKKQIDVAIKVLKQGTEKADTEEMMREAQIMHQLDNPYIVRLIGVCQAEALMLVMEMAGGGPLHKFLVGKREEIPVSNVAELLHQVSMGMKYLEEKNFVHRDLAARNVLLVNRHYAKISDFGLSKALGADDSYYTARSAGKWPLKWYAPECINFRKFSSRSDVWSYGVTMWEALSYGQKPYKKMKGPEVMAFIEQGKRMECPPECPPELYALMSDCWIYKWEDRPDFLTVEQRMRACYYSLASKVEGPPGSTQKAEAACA
In words: Inhibition of binding to Zap70 protein kinase.

In assay [2] the target is Proto-oncogene tyrosine-protein kinase Src (Homo sapiens, UniProt P12931). The experiment in a line: Inhibition of binding to Src SH2 domain.
The target in assay [3] is Tyrosine-protein kinase Yes (Homo sapiens, UniProt P07947). In words: Inhibition of binding to Yes SH2 domain.
The species named for another assay is Oryctolagus cuniculus. In words: Inhibition of rabbit osteoclast-mediated resorption of dentine at 100 uM; 0-35% inhibition. It counts as functional.

Sequence of Tyrosine-protein kinase Yes (P07947 whole entry, the tested form may be a part): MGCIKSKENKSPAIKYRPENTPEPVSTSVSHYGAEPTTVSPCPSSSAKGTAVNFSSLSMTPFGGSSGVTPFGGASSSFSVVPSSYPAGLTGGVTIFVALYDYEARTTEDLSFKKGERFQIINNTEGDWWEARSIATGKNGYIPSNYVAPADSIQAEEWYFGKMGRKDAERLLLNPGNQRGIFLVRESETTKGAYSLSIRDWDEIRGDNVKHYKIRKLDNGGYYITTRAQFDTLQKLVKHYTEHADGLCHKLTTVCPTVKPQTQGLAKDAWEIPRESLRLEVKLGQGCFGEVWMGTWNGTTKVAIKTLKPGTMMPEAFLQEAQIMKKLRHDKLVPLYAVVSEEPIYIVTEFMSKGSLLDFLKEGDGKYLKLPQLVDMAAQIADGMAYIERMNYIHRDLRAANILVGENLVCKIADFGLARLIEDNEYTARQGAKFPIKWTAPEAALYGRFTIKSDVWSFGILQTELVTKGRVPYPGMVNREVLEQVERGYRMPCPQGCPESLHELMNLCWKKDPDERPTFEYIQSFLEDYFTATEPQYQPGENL
Sequence of Proto-oncogene tyrosine-protein kinase Src (P12931 2-536 limits assumed): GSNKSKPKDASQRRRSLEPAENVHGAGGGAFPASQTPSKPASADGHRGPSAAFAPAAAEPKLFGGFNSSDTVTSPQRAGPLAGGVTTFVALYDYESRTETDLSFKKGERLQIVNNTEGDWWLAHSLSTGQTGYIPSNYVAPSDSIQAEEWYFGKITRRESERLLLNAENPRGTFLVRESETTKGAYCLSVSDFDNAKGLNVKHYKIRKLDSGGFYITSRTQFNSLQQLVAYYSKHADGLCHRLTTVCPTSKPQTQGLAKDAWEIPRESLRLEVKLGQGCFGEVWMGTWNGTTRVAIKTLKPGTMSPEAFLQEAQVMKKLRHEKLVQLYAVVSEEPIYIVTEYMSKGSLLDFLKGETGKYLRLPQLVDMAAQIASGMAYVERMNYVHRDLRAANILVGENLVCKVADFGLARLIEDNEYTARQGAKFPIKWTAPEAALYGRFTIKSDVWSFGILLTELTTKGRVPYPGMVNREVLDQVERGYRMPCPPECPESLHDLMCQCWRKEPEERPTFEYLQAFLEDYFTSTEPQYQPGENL

For `CC(C)(NC(=O)CCc1ccc(OCC(=O)O)c(P(=O)(O)O)c1)c1ccc(OCC2CCCCC2)c(C(N)=O)c1`, the figures for the 50% inhibitory concentration (IC50) in assay [1], in assay [2] and in assay [3] were greater than 500 µM, 35.4 µM and 303 µM, respectively.
For the compound `CC(=O)NC(Cc1ccc(OCC(=O)O)cc1)C(=O)N[C@@H](C)c1ccc(OCC2CCCCC2)c(C(N)=O)c1` (some centres undefined), the IC50 (usually the concentration at which inhibition is half-maximal) was 370 µM in assay [2] and greater than 500 µM in assay [3].
Turning to `CC(=O)NC(Cc1ccc(OCC(=O)O)c(P(=O)(O)O)c1)C(=O)NC(C)(C)c1ccc(OCC2CCCCC2)c(C(N)=O)c1` (centres undefined), the values for the 50% inhibitory concentration (IC50) in assay [1] and in assay [2] were greater than 500 µM and 3.2 µM, respectively.
Take `CC(C)(NC(=O)CCc1ccc(OS(=O)(=O)C(F)(F)F)c(P(=O)(O)O)c1)c1ccc(OCC2CCCCC2)c(C(N)=O)c1`: the IC50 in assay [1], in assay [2] and in assay [3] was greater than 500 µM each time.
Take `CC(C)(NC(=O)CCc1ccc(O)c(P(=O)(O)O)c1)c1ccc(OCC2CCCCC2)c(C(N)=O)c1`: the half-inhibitory concentration (IC50) in assay [1], in assay [2] and in assay [3] was greater than 500 µM each time.
Turning to `CC(=O)NC(Cc1ccc(OCC(=O)O)c(P(=O)(O)O)c1)C(=O)N[C@@H](C)c1ccc(OCC2CCCCC2)c(C(N)=O)c1` (some centres undefined), the 50% inhibitory concentration (IC50) was greater than 500 µM in assay [1] and 110 µM in assay [3]. Also, the Inhibition (usually the drop in the measured response relative to a control, in per cent) in the assay listed under Oryctolagus cuniculus was 0%.
In the case of `CC(=O)NC(Cc1ccc(OCC(=O)O)c(P(=O)(O)O)c1)C(=O)Nc1ccc(OCC2CCCCC2)c(C(N)=O)c1` (centres undefined), the concentration for half-maximal inhibition (IC50) in assay [1], in assay [2] and in assay [3] was greater than 500 µM in each case.
`CC(C)(NC(=O)CCc1ccc(OCn2cnnn2)c(P(=O)(O)O)c1)c1ccc(OCC2CCCCC2)c(C(N)=O)c1`: the IC50 in assay [1], in assay [2] and in assay [3] was greater than 500 µM each time.
As for `CCOP(=O)(O)c1cc(CC(NC(C)=O)C(=O)N[C@@H](C)c2ccc(OCC3CCCCC3)c(C(N)=O)c2)ccc1OCC(=O)O` (some centres undefined), the 50% inhibitory concentration (IC50) in assay [1] was greater than 500 µM; in assay [2], 7.3 µM; in assay [3], 156 µM.
For `CC(=O)NC(Cc1ccc(OCC(=O)O)c(P(=O)(O)O)c1)C(=O)NCc1ccc(OCC2CCCCC2)c(C(N)=O)c1` (centres undefined), in that order: greater than 500 µM, 378 µM and greater than 500 µM.
With `CC(=O)NC(Cc1ccc(OP(=O)(O)O)cc1)C(=O)N[C@@H](C)c1ccc(OCC2CCCCC2)c(C(N)=O)c1` (some centres undefined), the IC50 in assay [1] was 441 µM.
